In EP4455142A1, “NOVEL INHIBITOR OF QPCTL AND/OR QC” (Scenic Immunology B.V., priority 2023, dated 2024):

Tests used:
[1] = Low dose pharmacokinetics; type: in vivo; conditions: mouse, plasma, iv, 1 mg/kg; C57BI/6 mice, intravenously, 1 mg per kg bodyweight
Experimental: In order to determine the stability of test compounds in plasma, low-dose pharmacokinetic experiments were carried out in C57BI/6 mice. Test compounds were dissolved at 0.1 mg/mL in an appropriate vehicle and dosed intravenously at 1 mg per kg bodyweight in three animals per compound. At various (between 5 and 9) timepoints after injection, up to 24 hours, blood samples were drawn, plasma isolated and test compound concentrations were determined using LC-MS/MS. t½ values were subsequently calculated using Phoenix WinNonlin 6.3 software and averaged over the three mice per test compound.

[2] = test system: Raji human Burkitt's lymphoma cells; assay: In vivo Raji xenograft mouse model; design: species or system NSG mice; conditions: (1) 100 mg/kg orally once daily in combination with Rituximab 10 mg/kg intravenously Q3D, versus Rituximab alone
Experimental: Anti tumor effects were determined in a model for Burkitt's lymphoma. NSG mice were intravenuously injected with 1 × 10^6 Raji human Burkitt's lymphoma cells. Four days after tumor cell injection, animals were treated with compound (1) as a single agent and in combination with Rituximab (anti-CD20 antibody). Compound (1) was administered at 100 mg/kg orally, once daily. Rituximab was dosed at 10 mg/kg intravenously every third day (Q3D). Tumor progression was evaluated by monitoring animal health and body weight measurement. […] Animals treated with compound in combination with Rituximab, on average, lived 5.5 days longer than animals treated with Rituximab alone.

Pan02 cells = assay: In vivo Pan02 syngeneic mouse model; design: species or system C57BL/6 female mice
Experimental: Anti tumor effects were evaluated in the Pan02, pancreatic adenocarcinoma syngeneic mouse tumor model. For this study 3 × 10^6 Pan02 cells were injected in the right front flank of C57BL/6 female mice. Tumor size was measured and when tumors reached an average size of 80-120 mm^3, treatment was started. Treatment consisted of compound alone, or in combination with the anti PD-L1 antibody (B7-H1). Compound (1) was administered orally at 100 mg/kg once daily and anti-PD-L1 antibody was administered intraperitoneally at 10 mg/kg twice weekly. Tumor progression was monitored by tumor volume measurement using a caliper.

O=C1OC[C@H](c2ccc(-c3cnn(C(F)(F)F)c3)cc2F)N1c1ccc2[nH]cnc2c1 [Compound (1)]
half-life [1]: 3.99 to 4.58 h | lived longer than animals treated with Rituximab alone (on average) [2]: 5.5 days | anti tumor effect (tumor volume), combined with anti-PD-L1 antibody (Pan02 cells; (1) orally 100 mg/kg once daily plus anti-PD-L1 antibody intraperitoneally 10 mg/kg twice weekly): tumor regression | anti tumor effect (tumor volume), compound alone (Pan02 cells; (1) orally 100 mg/kg once daily, by itself): tumor growth inhibition
